Reference: the supplement of paper PMC11061612

Experiments:
Assay in all cases: combination Emax (second highest fraction inhibited in the dose matrix, 72 h); higher = more inhibition; extreme values may be limits of the assay
[1] = system: IM-95 (Gastric Carcinoma)
Procedure, shortened: (§1)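 Cell lines grown in DMEM/F12 or RPMI with 10% FBS were plated in 1536-well plates and held 24 hours at 37°C, 5% CO2 before 72 hours of exposure to two-drug dose matrices, with DMSO typically at 0.2%. CellTiter-Glo 2.0 luminescence gave viability, which was converted to inhibition. Vehicle wells were set to 0 and blank wells to 1. Combination Emax is the second-highest inhibition in the matrix, and Bliss excess is the observed combination effect minus the expected EA + EB − EA·EB, where EA and EB are the single-agent effects.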

NCI-H2731 (Mesothelioma) = system: NCI-H2731 (Mesothelioma)
Procedure, shortened: as §1

[2] = system: RPMI-8226 (Plasma Cell Myeloma)
Procedure, shortened: as §1

[3] = system: KMS-12-BM (Plasma Cell Myeloma)
Procedure, shortened: as §1

[4] = system: KP-3 (Pancreatic Carcinoma)
Procedure, shortened: as §1

[5] = system: COR-L279 (Small Cell Lung Carcinoma)
Procedure, shortened: as §1

[6] = system: MOLM-13 (Acute Myeloid Leukemia)
Procedure, shortened: as §1

[7] = system: KU812 (Chronic Myelogenous Leukemia)
Procedure, shortened: as §1

[8] = system: MN-60 (B-Lymphoblastic Leukemia)
Procedure, shortened: as §1

[9] = system: KYSE-270 (Esophageal Squamous Cell Carcinoma)
Procedure, shortened: as §1

[10] = system: NCI-H3122 (Lung Adenocarcinoma)
Procedure, shortened: as §1

[11] = system: 8505C (Thyroid Gland Carcinoma)
Procedure, shortened: as §1

SJSA-1 (Osteosarcoma) = system: SJSA-1 (Osteosarcoma)
Procedure, shortened: as §1

[12] = system: NCI-H661 (Non-Small Cell Lung Carcinoma)
Procedure, shortened: as §1

[13] = system: MOG-G-CCM (Low Grade Glioma)
Procedure, shortened: as §1

[14] = system: NCI-H929 (Plasma Cell Myeloma)
Procedure, shortened: as §1

G-361 (Melanoma) = system: G-361 (Melanoma)
Procedure, shortened: as §1

[15] = system: SUP-B15 (B-Lymphoblastic Leukemia)
Procedure, shortened: as §1

[16] = system: SK-GT-2 (Gastric Carcinoma)
Procedure, shortened: as §1

[17] = system: ESO51 (Esophageal Adenocarcinoma)
Procedure, shortened: as §1

Row | Structure (SMILES) | combination Emax [1] | combination Emax (NCI-H2731 (Mesothelioma)) | combination Emax [2] | combination Emax [3] | combination Emax [4] | combination Emax [5] | combination Emax [6] | combination Emax [7] | combination Emax [8] | combination Emax [9] | combination Emax [10] | combination Emax [11] | combination Emax (SJSA-1 (Osteosarcoma)) | combination Emax [12] | combination Emax [13] | combination Emax [14] | combination Emax (G-361 (Melanoma)) | combination Emax [15] | combination Emax [16] | combination Emax [17]
1 | Cc1cc2ncnn2cc1Nc1ncc2c(n1)n(C1CCOCC1)c(=O)n2C [AZD7648] + C=CCn1c(=O)c2cnc(Nc3ccc(N4CCN(C)CC4)cc3)nc2n1-c1cccc(C(C)(C)O)n1 [AZD1775] (first compound max 10 µM, partner max 1 µM) | 0.501 | 0.416 | 0.348 | 0.937 | 0.282 | 0.484 | 1 | 0.799 | 0.124 | 0.594 | 0.744 | 0.175 | 0.486 | 0.649 | 0.48 | 0.827 | 0.545 | 0.553 | 0.74 | 0.576
2 | COc1nnc2ccc(N3CCC(c4ccc(OCCN5CCN(C)C(=O)[C@H]5C)cc4)CC3)nn12 [AZD5153] + Cn1cnc2c(F)c(Nc3ccc(Br)cc3Cl)c(C(=O)NOCCO)cc21 [Selumetinib] (first compound max 1 µM, 7x7, partner max 10 µM) | 0.564 | 0.39 | 0.913 | 1 | 0.338 | 0.682 | 1 | 0.994 | 0.78 | 0.58 | 0.68 | 0.593 | 0.576 | 0.305 | 0.548 | 1 | 0.766 | 1 | 0.479 | 0.901
3 | C=CCn1c(=O)c2cnc(Nc3ccc(N4CCN(C)CC4)cc3)nc2n1-c1cccc(C(C)(C)O)n1 [AZD1775] + O=C(c1cc(Cc2n[nH]c(=O)c3ccccc23)ccc1F)N1CCN(C(=O)C2CC2)CC1 [Olaparib] (first compound max 1 µM, partner max 10 µM) | 0.447 | 0.349 | 0.502 | 0.905 | 0.28 | 0.858 | 0.991 | 0.816 | 0.366 | 0.7 | 0.736 | 0.319 | 0.253 | 0.512 | 0.456 | 0.473 | 0.564 | 0.973 | 0.82 | 0.455
4 | CC(=O)c1c(C)c2cnc(Nc3ccc(N4CCNCC4)cn3)nc2n(C2CCCC2)c1=O [Palbociclib] + Cn1cnc2c(F)c(Nc3ccc(Br)cc3Cl)c(C(=O)NOCCO)cc21 [Selumetinib] (first compound max 10 µM, 7x7, partner max 10 µM) | 0.315 | 0.191 | 0.547 | 0.642 | 0.244 | 0.37 | 0.982 | 0.904 | 0.402 | 0.252 | 0.701 | 0.364 | 0.424 | 0.119 | 0.157 | 0.79 | 0.721 | 0.661 | 0.165 | 0.601
5 | CCN(CCO)CCCOc1ccc2c(Nc3cc(CC(=O)Nc4cccc(F)c4)[nH]n3)ncnc2c1 [AZD2811] + C[C@@H]1COCCN1C2=NC(=NC(=C2)C3(CC3)[S@](=N)(=O)C)C4=C5C=CNC5=NC=C4 [AZD6738] (first compound max 1 µM, 7x7, partner max 10 µM) | 0.312 | 0.308 | 0.967 | 0.941 | 0.368 | 0.832 | 1 | 0.799 | 0.477 | 0.764 | 0.621 | 0.278 | 0.289 | 0.441 | 0.492 | 0.641 | 0.441 | 0.914 | 0.289 | 0.751
6 | CCN(CCO)CCCOc1ccc2c(Nc3cc(CC(=O)Nc4cccc(F)c4)[nH]n3)ncnc2c1 [AZD2811] + O=C(c1cc(Cc2n[nH]c(=O)c3ccccc23)ccc1F)N1CCN(C(=O)C2CC2)CC1 [Olaparib] (first compound max 1 µM, 7x7, partner max 10 µM) | 0.362 | 0.226 | 0.491 | 0.34 | 0.144 | 0.945 | 1 | 0.678 | 0.301 | 0.322 | 0.271 | 0.212 | 0.17 | 0.155 | 0.285 | 0.292 | 0.34 | 0.976 | 0.203 | 0.118
7 | CCc1c2c(nc3ccc(O)cc13)-c1cc3c(c(=O)n1C2)COC(=O)[C@]3(O)CC [SN-38] + CN(C)CCCOc1ccc(-c2ccc3ncc4c(c3c2)n(C2CCOCC2)c(=O)n4C)cn1 [AZD0156] (first compound max 0.3 µM, 7x7, partner max 1 µM) | 0.499 | 0.406 | 0.77 | 0.96 | 0.0449 | 1 | 1 | 0.72 | 0.838 | 0.946 | 0.925 | 0.87 | 0.673 | 0.463 | 0.429 | 0.869 | 0.324 | 1 | 0.444 | 0.586
8 | COc1cccc(OCCCN)c1-c1cc(Nc2cnc(C#N)cn2)n[nH]1 [Prexasertib] + O=C(c1cc(Cc2n[nH]c(=O)c3ccccc23)ccc1F)N1CCN(C(=O)C2CC2)CC1 [Olaparib] (first compound max 1 µM, 7x7, partner max 10 µM) | 0.253 | 0.387 | 0.999 | 1 | 0.469 | 0.923 | 1 | 0.796 | 0.424 | 0.964 | 0.747 | 0.722 | 0.639 | 0.797 | 0.673 | 0.727 | 0.668 | 0.98 | 0.834 | 0.555
9 | CC(=O)c1c(C)c2cnc(Nc3ccc(N4CCNCC4)cn3)nc2n(C2CCCC2)c1=O [Palbociclib] + CC1(C)CCC(CN2CCN(c3ccc(C(=O)NS(=O)(=O)c4ccc(NCC5CCOCC5)c([N+](=O)[O-])c4)c(Oc4cnc5[nH]ccc5c4)c3)CC2)=C(c2ccc(Cl)cc2)C1 [Venetoclax] (first compound max 10 µM, 7x7, partner max 1 µM) | 0.105 | 0.211 | 0.387 | 1 | 0.0792 | 0.375 | 1 | 0.521 | 0.422 | 0.125 | 0.572 | 0.047 | 0.276 | 0.0364 | 0.136 | 0.356 | 0.488 | 0.989 | 0.0922 | 0.288
10 | NC1(C(=O)N[C@@H](CCO)c2ccc(Cl)cc2)CCN(c2ncnc3[nH]ccc23)CC1 [Capivasertib] + COc1nnc2ccc(N3CCC(c4ccc(OCCN5CCN(C)C(=O)[C@H]5C)cc4)CC3)nn12 [AZD5153] (first compound max 10 µM, 7x7, partner max 1 µM) | 0.562 | 0.588 | 0.878 | 1 | 0.296 | 1 | 1 | 0.931 | 0.848 | 0.466 | 0.738 | 0.405 | 0.727 | 0.454 | 0.834 | 1 | 0.891 | 1 | 0.362 | 0.622
11 | CN(C)CCCOc1ccc(-c2ccc3ncc4c(c3c2)n(C2CCOCC2)c(=O)n4C)cn1 [AZD0156] + C=CCn1c(=O)c2cnc(Nc3ccc(N4CCN(C)CC4)cc3)nc2n1-c1cccc(C(C)(C)O)n1 [AZD1775] (first compound max 1 µM, partner max 1 µM) | 0.454 | 0.285 | 0.656 | 0.948 | 0.211 | 0.454 | 0.985 | 0.789 | 0.374 | 0.676 | 0.765 | 0.126 | 0.17 | 0.523 | 0.4 | 0.675 | 0.564 | 0.602 | 0.714 | 0.69
12 | CN(C)CCCOc1ccc(-c2ccc3ncc4c(c3c2)n(C2CCOCC2)c(=O)n4C)cn1 [AZD0156] + O=C(c1cc(Cc2n[nH]c(=O)c3ccccc23)ccc1F)N1CCN(C(=O)C2CC2)CC1 [Olaparib] (first compound max 3 µM, partner max 3 µM) | 0.151 | 0.201 | 0.421 | 0.438 | 0.0919 | 0.692 | 0.563 | 0.64 | 0.119 | 0.343 | 0.251 | 0.392 | 0.331 | 0.217 | 0.289 | 0.863 | 0.267 | 0.675 | 0.273 | 0.348
13 | Cc1c2c(nn1C)CSCc1cc(n(C)n1)CSc1cc(c3ccccc3c1)OCCCc1c(C(=O)O)n(C)c3c-2c(Cl)ccc13 [AZD5991] + C=CCn1c(=O)c2cnc(Nc3ccc(N4CCN(C)CC4)cc3)nc2n1-c1cccc(C(C)(C)O)n1 [AZD1775] (first compound max 1 µM, partner max 1 µM) | 0.895 | 0.298 | 0.984 | 1 | 0.269 | 0.466 | 1 | 0.885 | 0.188 | 0.921 | 0.815 | 0.27 | 0.387 | 0.949 | 0.457 | 1 | 0.967 | 1 | 0.809 | 0.591
